DBAASP
≈ marks a conversion by molar mass, not a printed value. One block for each compound: values may come before it.

Legend:
Test in all cases: ≥ marks a high value that may be exact or a test limit, other limits are often not marked, values filed in µg/mL are converted to µM
[1] = system: Lacticaseibacillus rhamnosus 7469
Escherichia coli UB1005 = system: Escherichia coli UB1005
[2] = system: Salmonella enterica subsp. enterica serovar Typhimurium ATCC 14028
[3] = system: Lacticaseibacillus rhamnosus 1.0936
[4] = system: Escherichia coli ATCC 25922
Escherichia coli K99 = system: Escherichia coli K99
[5] = system: Staphylococcus aureus ATCC 29213
[6] = system: Lacticaseibacillus rhamnosus 1.0911
[7] = system: Lacticaseibacillus rhamnosus 1.0385
[8] = system: Staphylococcus aureus ATCC 25923
[9] = system: Salmonella enterica subsp. enterica serovar Typhimurium C77-31
[10] = system: Pseudomonas aeruginosa ATCC 27853
[11] = system: Staphylococcus aureus ATCC 43300
[12] = system: Salmonella enterica subsp. enterica serovar Pullorum C79-13
[13] = system: Lactiplantibacillus plantarum 8014
Escherichia coli K88 = system: Escherichia coli K88
[14] = system: Staphylococcus aureus 2844
[15] = system: Pseudomonas aeruginosa 15159
[16] = system: Staphylococcus aureus FDA 486
[17] = system: Staphylococcus epidermidis ATCC 12228
[18] = system: Cronobacter sakazakii ATCC 29544
[19] = system: Bacillus subtilis ATCC 23857
[20] = system: Cryptococcus neoformans ATCC 24067
[21] = system: Acinetobacter baumannii ATCC 19606
[22] = system: Candida krusei ATCC 20029
[23] = system: Staphylococcus aureus ATCC 33591
[24] = system: Cryptococcus gattii ATCC 32608
[25] = system: Bacillus anthracis Sterne 34F2
[26] = system: Staphylococcus aureus USA 300
[27] = system: Pseudomonas aeruginosa PAO1
[28] = system: Staphylococcus aureus NRS 72
Bacillus subtilis 168 = system: Bacillus subtilis 168
[29] = system: Escherichia coli DH5alpha
[30] = system: Mycobacterium tuberculosis H37Ra
[31] = system: Klebsiella pneumoniae NCTC 9633
[32] = system: Haemophilus influenzae ATCC 49247
[33] = system: Staphylococcus aureus 1399/17
[34] = system: Escherichia coli ESBL 521/17
[35] = system: Acinetobacter baumannii 7226/16
[36] = system: Klebsiella pneumoniae ESBL 344/17
Escherichia coli ML-35p = system: Escherichia coli ML-35p
[37] = system: Pseudomonas aeruginosa 522/17
[38] = system: Staphylococcus aureus SG511

MIC [1]: ≥ 64 µM
MIC (Escherichia coli UB1005): ≥ 64 µM
MIC [2]: > 64 µM
MIC [3]: ≥ 64 µM
MIC [4]: > 64 µM
MIC (Escherichia coli K99): ≥ 64 µM
MIC [5]: > 64 µM
MIC [6]: ≥ 64 µM
MIC [7]: ≥ 64 µM
MIC [8]: > 64 µM
MIC [9]: ≥ 64 µM
MIC [10]: > 64 µM
MIC [11]: > 64 µM
MIC [12]: ≥ 64 µM
MIC (Escherichia coli K88): ≥ 64 µM
Compound: CC(C)C[C@H](NC(=O)[C@H](CC(C)C)NC(=O)[C@H](Cc1c[nH]c2ccccc12)NC(=O)[C@H](Cc1c[nH]c2ccccc12)NC(=O)[C@H](Cc1c[nH]c2ccccc12)NC(=O)[C@H](CCCN=C(N)N)NC(=O)[C@H](CS)NC(=O)[C@H](Cc1ccccc1)NC(=O)[C@H](Cc1ccc(O)cc1)NC(=O)[C@H](CO)NC(=O)[C@H](C)NC(=O)[C@@H](N)CS)C(N)=O [CASYFCRWWWLL]
MIC [13]: ≥ 64 µM

MIC [14]: 5 µM (≈ 12.2 µg/mL)
MIC [15]: 10 µM (≈ 24.4 µg/mL)
MIC [16]: 5 µM (≈ 12.2 µg/mL)
MIC [5]: 10 µM (≈ 24.4 µg/mL)
MIC [10]: 10 µM (≈ 24.4 µg/mL)
Compound: CC(=O)N[C@@H](CCC(=O)O)C(=O)N[C@@H](Cc1c[nH]c2ccccc12)C(=O)N[C@@H](CCCCN)C(=O)N[C@@H](CCCN=C(N)N)C(=O)N[C@@H](Cc1c[nH]c2ccccc12)C(=O)N[C@H](C(=O)N[C@@H](CCC(N)=O)C(=O)N[C@@H](CCCN=C(N)N)C(=O)N[C@@H](Cc1c[nH]c2ccccc12)C(=O)N[C@@H](CCCCN)C(=O)N[C@@H](CC(=O)O)C(=O)N[C@@H](Cc1c[nH]c2ccccc12)C(=O)N[C@@H](CC(C)C)C(=O)N[C@@H](CCCN=C(N)N)C(=O)N[C@@H](CC(N)=O)C(=O)N[C@@H](CC(C)C)C(=O)N[C@H](C(N)=O)C(C)C)C(C)C [EWKRWVQRWKDWLRNLV]

MIC [17]: 2 µM (≈ 2.6 µg/mL)
MIC [18]: ≥ 256 µM
MIC [5]: 4 µM (≈ 5.2 µg/mL)
MIC [19]: 4 µM (≈ 5.2 µg/mL)
MIC [8]: 4 µM (≈ 5.2 µg/mL)
Compound: CC[C@H](C)[C@H](N)C(=O)N[C@@H](CC(C)C)C(=O)NCC(=O)N[C@H](C(=O)N[C@H](C(=O)N[C@@H](CC(C)C)C(=O)NCC(=O)N[C@@H](CC(C)C)C(=O)N[C@@H](CC(C)C)C(=O)N[C@@H](CCCCN)C(=O)N[C@@H](Cc1ccccc1)C(=O)N[C@@H](CC(C)C)C(N)=O)[C@@H](C)CC)[C@@H](C)O [ILGTILGLLKFL]

MIC [17]: 2.13 µM (≈ 3.99 µg/mL)
MIC [4]: 3.01 µM (≈ 5.63 µg/mL)
MIC [20]: 8.55 µM (≈ 16 µg/mL)
MIC [21]: 2.68 µM (≈ 5.02 µg/mL)
MIC [10]: 24.2 µM (≈ 45.2 µg/mL)
MIC [22]: 30.5 µM (≈ 57 µg/mL)
MIC [23]: 4.27 µM (≈ 7.99 µg/mL)
MIC [24]: 3.38 µM (≈ 6.33 µg/mL)
Compound: CC[C@H](C)[C@H](NC(C)=O)C(=O)N[C@@H](Cc1c[nH]c2ccccc12)C(=O)N[C@@H](CC(C)C)C(=O)N[C@H](C(=O)N[C@@H](CCCCN)C(=O)N[C@@H](C)C(=O)N[C@@H](CC(C)C)C(=O)N[C@@H](CCCCN)C(=O)N[C@@H](Cc1ccccc1)C(=O)N[C@@H](CC(C)C)C(=O)NCC(=O)N[C@@H](CCCCN)C(=O)N[C@@H](CC(N)=O)C(=O)N[C@@H](CC(C)C)C(=O)NCC(=O)N[C@@H](CCCCN)C(N)=O)[C@@H](C)O [IWLTKALKFLGKNLGK]

Compound: CC(C)[C@H](NC(=O)[C@H](Cc1c[nH]c2ccccc12)NC(=O)[C@H](Cc1cnc[nH]1)NC(=O)[C@H](CCCN=C(N)N)NC(=O)[C@H](CCCN=C(N)N)NC(=O)[C@H](Cc1c[nH]c2ccccc12)NC(=O)[C@H](Cc1c[nH]c2ccccc12)NC(=O)[C@H](Cc1cnc[nH]1)NC(=O)[C@H](Cc1c[nH]c2ccccc12)NC(=O)[C@H](CCCN=C(N)N)NC(=O)[C@@H](N)CCCCN)C(=O)N[C@H](C(=O)N[C@@H](Cc1c[nH]c2ccccc12)C(N)=O)C(C)C [KRWHWWRRHWVVW]
MIC [25]: ≥ 80 µM
MIC [26]: ≥ 80 µM
MIC [27]: 50 µM (≈ 101 µg/mL)
MIC [28]: ≥ 80 µM
MIC (Bacillus subtilis 168): 0.2 µM (≈ 0.403 µg/mL)
MIC [21]: 50 µM (≈ 101 µg/mL)
MIC [29]: 25 µM (≈ 50.4 µg/mL)
MIC [30]: 2.5 µM (≈ 5.04 µg/mL)
MIC [31]: ≥ 80 µM
MIC [32]: ≥ 80 µM

MIC [33]: 4 µM (≈ 13 µg/mL)
MIC [34]: 2 µM (≈ 6.48 µg/mL)
MIC [35]: 8 µM (≈ 25.9 µg/mL)
MIC [36]: 2 µM (≈ 6.48 µg/mL)
MIC [23]: 16 µM (≈ 51.8 µg/mL)
MIC (Escherichia coli ML-35p): 4 µM (≈ 13 µg/mL)
MIC [37]: 11.3 µM (≈ 36.6 µg/mL)
MIC [38]: 0.5 µM (≈ 1.62 µg/mL)
Compound: CC[C@H](C)[C@H](NC(=O)[C@@H]1CCCN1C(=O)[C@@H]1CCCN1C(=O)[C@H](CCCN=C(N)N)NC(=O)[C@H](CCCN=C(N)N)NC(=O)[C@H](Cc1ccccc1)NC(=O)[C@@H]1CCCN1C(=O)[C@H](CC(C)C)NC(=O)[C@H](CCCN=C(N)N)NC(=O)[C@H](Cc1ccccc1)NC(=O)[C@@H](N)CCCN=C(N)N)C(=O)N[C@@H](CCCN=C(N)N)C(=O)N[C@H](C(=O)N1CCC[C@H]1C(=O)N1CCC[C@H]1C(=O)N1CCC[C@H]1C(=O)N[C@@H](Cc1ccccc1)C(=O)N[C@@H](Cc1ccc(O)cc1)C(=O)N1CCC[C@H]1C(=O)N1CCC[C@H]1C(=O)N[C@@H](Cc1ccccc1)C(=O)N[C@@H](CCCN=C(N)N)C(=O)N[C@@H](CCCN=C(N)N)C(=O)N[C@@H](Cc1ccccc1)C(=O)N[C@@H](CC(C)C)C(N)=O)[C@@H](C)CC [RFRLPFRRPPIRIPPPFYPPFRRFL]
